SMILES strings stand for the structures.

The first assay has as its system A498. In words: in vitro cytotoxicity against A 498 cancer cell line. The class given is functional. To be noted: Homo sapiens.
Compound `COC(=O)[C@@H]1[C@H](c2cc(OC)c(O)c(OC)c2)c2cc3c(cc2[C@H](O)[C@H]1CO)OCO3` displayed a GI50 of 0.4 µM.

In the next assay the test system is A498. The experiment in a line: Compound was evaluated for in vitro cytotoxicity against A 498 cancer cell line. The class given is functional. The note with it: Homo sapiens.
Compound `COC(=O)[C@@H]1[C@H](c2cc(OC)c(OC)c(OC)c2)c2cc3c(cc2[C@H](O)[C@H]1CO)OCO3` returned a GI50 of 0.03 µM.

For a further assay, the system named is BT-549. The experiment in a line: In vitro cytotoxicity against human breast cancer BT-549 cell line.
Details: not given
The class given is functional.
`COC(=O)[C@@H]1[C@H](c2cc(OC)c(O)c(OC)c2)c2cc3c(cc2[C@H](O)[C@H]1CO)OCO3` returned a concentration for 50% growth inhibition (GI50) of 0.5 µM.
In the case of `COC(=O)[C@@H]1[C@H](c2cc(OC)c(OC)c(OC)c2)c2cc3c(cc2[C@H](O)[C@H]1CO)OCO3`, the GI50 was 0.06 µM.

The next assay has as its system COLO 205. In words: In vitro cytotoxicity against human colon cancer COLO 205 cell line. In kind it is functional.
Details: not given
The compound `COC(=O)[C@@H]1[C@H](c2cc(OC)c(O)c(OC)c2)c2cc3c(cc2[C@H](O)[C@H]1CO)OCO3` gave a 50% growth inhibitory concentration (GI50) of 0.1 µM.
Regarding `COC(=O)[C@@H]1[C@H](c2cc(OC)c(OC)c(OC)c2)c2cc3c(cc2[C@H](O)[C@H]1CO)OCO3`, the GI50 is 0.01 µM.

The next assay deals with DU-145. In words: Compound was evaluated for in vitro cytotoxicity against DU-145 cancer cell line. In kind it is functional. The note with it: Homo sapiens.
As to `COC(=O)[C@@H]1[C@H](c2cc(OC)c(OC)c(OC)c2)c2cc3c(cc2[C@H](O)[C@H]1CO)OCO3`, halving of growth (GI50) required 0.04 µM.

For a further assay, the system named is DU-145. The experiment in a line: in vitro cytotoxicity against DU-145 cancer cell line. The class given is functional. The note with it: Homo sapiens.
`COC(=O)[C@@H]1[C@H](c2cc(OC)c(O)c(OC)c2)c2cc3c(cc2[C@H](O)[C@H]1CO)OCO3` showed a GI50 of 0.47 µM.

A further assay relates to HCT-15. In words: In vitro cytotoxicity against human colon cancer HCT 15 cell line. The class given is functional.
Details: not given
In turn, `COC(=O)[C@@H]1[C@H](c2cc(OC)c(O)c(OC)c2)c2cc3c(cc2[C@H](O)[C@H]1CO)OCO3` came in with a GI50 of 1.02 µM.
As for `COC(=O)[C@@H]1[C@H](c2cc(OC)c(OC)c(OC)c2)c2cc3c(cc2[C@H](O)[C@H]1CO)OCO3`, the GI50 was 0.04 µM.

The test system of a further assay is HCT-116. In words: In vitro cytotoxicity against human colon cancer HCT 116 cell line. The class given is functional.
Details: not given
As to `COC(=O)[C@@H]1[C@H](c2cc(OC)c(O)c(OC)c2)c2cc3c(cc2[C@H](O)[C@H]1CO)OCO3`, the concentration for 50% growth inhibition (GI50) stood at 0.2 µM.
In the case of `COC(=O)[C@@H]1[C@H](c2cc(OC)c(OC)c(OC)c2)c2cc3c(cc2[C@H](O)[C@H]1CO)OCO3`, it took 0.04 µM to inhibit growth by half (GI50).

A further assay relates to HCC 2998. The experiment in a line: In vitro cytotoxicity against human colon cancer HCC 2998 cell line. In kind it is functional.
Details: not given
The compound `COC(=O)[C@@H]1[C@H](c2cc(OC)c(O)c(OC)c2)c2cc3c(cc2[C@H](O)[C@H]1CO)OCO3` gave a 50% growth inhibitory concentration (GI50) of 0.8 µM.
Still for that read-out and setting: under `COC(=O)[C@@H]1[C@H](c2cc(OC)c(OC)c(OC)c2)c2cc3c(cc2[C@H](O)[C@H]1CO)OCO3` stands 0.03 µM.

A further assay concerns HT-29. The experiment in a line: In vitro cytotoxicity against human colon cancer HT 29 cell line. The class given is functional.
Details: not given
The compound `COC(=O)[C@@H]1[C@H](c2cc(OC)c(O)c(OC)c2)c2cc3c(cc2[C@H](O)[C@H]1CO)OCO3` came in with a concentration for 50% growth inhibition (GI50) of 0.09 µM.
In the case of `COC(=O)[C@@H]1[C@H](c2cc(OC)c(OC)c(OC)c2)c2cc3c(cc2[C@H](O)[C@H]1CO)OCO3`, growth was halved (GI50) at 0.02 µM.

A further assay relates to Hs-578T. The experiment in a line: In vitro cytotoxicity against human breast cancer Hs 578.T cell line. The class given is functional.
Details: not given
The compound `COC(=O)[C@@H]1[C@H](c2cc(OC)c(O)c(OC)c2)c2cc3c(cc2[C@H](O)[C@H]1CO)OCO3` displayed a GI50 of 3.12 µM.
`COC(=O)[C@@H]1[C@H](c2cc(OC)c(OC)c(OC)c2)c2cc3c(cc2[C@H](O)[C@H]1CO)OCO3` registered a GI50 of 0.01 µM.

A further assay relates to KM12. In words: In vitro cytotoxicity against human colon cancer KM 12 cell line.
Details: not given
In kind it is functional.
For the compound `COC(=O)[C@@H]1[C@H](c2cc(OC)c(O)c(OC)c2)c2cc3c(cc2[C@H](O)[C@H]1CO)OCO3`, the GI50 was determined as 0.11 µM.
On to `COC(=O)[C@@H]1[C@H](c2cc(OC)c(OC)c(OC)c2)c2cc3c(cc2[C@H](O)[C@H]1CO)OCO3`, for which the GI50 was 0.02 µM.

For another assay, the system named is MCF7. In words: In vitro cytotoxicity against human breast cancer MCF-7 cell line. The class given is functional.
Details: not given
As to `COC(=O)[C@@H]1[C@H](c2cc(OC)c(O)c(OC)c2)c2cc3c(cc2[C@H](O)[C@H]1CO)OCO3`, the 50% growth inhibitory concentration (GI50) was 0.3 µM.
`COC(=O)[C@@H]1[C@H](c2cc(OC)c(OC)c(OC)c2)c2cc3c(cc2[C@H](O)[C@H]1CO)OCO3` returned a GI50 of 0.03 µM.

In the next assay the test system is M14. In words: Compound was evaluated for in vitro cytotoxicity against M-14 cancer cell line. The class given is functional. The note with it: Homo sapiens.
`COC(=O)[C@@H]1[C@H](c2cc(OC)c(OC)c(OC)c2)c2cc3c(cc2[C@H](O)[C@H]1CO)OCO3` gave a GI50 of 0.04 µM.

The subject of the next assay is M14. The experiment in a line: in vitro cytotoxicity against M-14 cancer cell line. The class given is functional. The note with it: Homo sapiens.
Take `COC(=O)[C@@H]1[C@H](c2cc(OC)c(O)c(OC)c2)c2cc3c(cc2[C@H](O)[C@H]1CO)OCO3`: it took 0.86 µM to inhibit growth by half (GI50).

In another assay the test system is MDA-MB-231. In words: In vitro cytotoxicity against human breast cancer MDA-MB 231 cell line. In kind it is functional.
Details: not given
`COC(=O)[C@@H]1[C@H](c2cc(OC)c(O)c(OC)c2)c2cc3c(cc2[C@H](O)[C@H]1CO)OCO3`: the GI50 amounted to 0.1 µM.
Consider `COC(=O)[C@@H]1[C@H](c2cc(OC)c(OC)c(OC)c2)c2cc3c(cc2[C@H](O)[C@H]1CO)OCO3`, for which the 50% growth inhibitory concentration (GI50) is 0.03 µM.

The test system of another assay is MDA-MB-435. The experiment in a line: In vitro cytotoxicity against human breast cancer MDA-MB 435 cell line. In kind it is functional.
Details: not given
`COC(=O)[C@@H]1[C@H](c2cc(OC)c(O)c(OC)c2)c2cc3c(cc2[C@H](O)[C@H]1CO)OCO3`: it took 0.1 µM to inhibit growth by half (GI50).
Regarding `COC(=O)[C@@H]1[C@H](c2cc(OC)c(OC)c(OC)c2)c2cc3c(cc2[C@H](O)[C@H]1CO)OCO3`, it took 0.01 µM to inhibit growth by half (GI50).

The next assay relates to MCF7. The experiment in a line: Compound was evaluated for in vitro cytotoxicity against MCF-7 ADR cancer cell line. In kind it is functional. To be noted: Homo sapiens.
For the compound `COC(=O)[C@@H]1[C@H](c2cc(OC)c(OC)c(OC)c2)c2cc3c(cc2[C@H](O)[C@H]1CO)OCO3`, the 50% growth inhibitory concentration (GI50) came to 0.04 µM.

The next assay concerns MCF7. The experiment in a line: in vitro cytotoxicity against MCF-7 ADR cancer cell line. The class given is functional. To be noted: Homo sapiens.
`COC(=O)[C@@H]1[C@H](c2cc(OC)c(O)c(OC)c2)c2cc3c(cc2[C@H](O)[C@H]1CO)OCO3` registered a concentration for 50% growth inhibition (GI50) of 0.1 µM.

Test system in a further assay: not listed separately
In words: In vitro cytotoxicity against human breast cancer MCF-7 ADR cell line. To be noted: MCF7. The class given is functional.
`COC(=O)[C@@H]1[C@H](c2cc(OC)c(O)c(OC)c2)c2cc3c(cc2[C@H](O)[C@H]1CO)OCO3` gave a concentration for 50% growth inhibition (GI50) of 0.1 µM.
With `COC(=O)[C@@H]1[C@H](c2cc(OC)c(OC)c(OC)c2)c2cc3c(cc2[C@H](O)[C@H]1CO)OCO3`, halving of growth (GI50) required 0.04 µM.

The test system of a further assay is MDA-N. In words: In vitro cytotoxicity against human breast cancer MDA-N cell line. The class given is functional.
Details: not given
In turn, `COC(=O)[C@@H]1[C@H](c2cc(OC)c(O)c(OC)c2)c2cc3c(cc2[C@H](O)[C@H]1CO)OCO3` yielded a GI50 of 0.1 µM.
Still for that read-out and setting: under `COC(=O)[C@@H]1[C@H](c2cc(OC)c(OC)c(OC)c2)c2cc3c(cc2[C@H](O)[C@H]1CO)OCO3` stands 0.01 µM.

The next assay deals with SW-620. In words: In vitro cytotoxicity against human colon cancer SW 620 cell line.
Details: not given
In kind it is functional.
`COC(=O)[C@@H]1[C@H](c2cc(OC)c(O)c(OC)c2)c2cc3c(cc2[C@H](O)[C@H]1CO)OCO3` registered a GI50 of 0.34 µM.
On the same count and under the same terms, under `COC(=O)[C@@H]1[C@H](c2cc(OC)c(OC)c(OC)c2)c2cc3c(cc2[C@H](O)[C@H]1CO)OCO3` stands 0.02 µM.

Another assay has as its system SK-OV-3. In words: in vitro cytotoxicity against SKOV3 cancer cell line. In kind it is functional. To be noted: Homo sapiens.
As for `COC(=O)[C@@H]1[C@H](c2cc(OC)c(O)c(OC)c2)c2cc3c(cc2[C@H](O)[C@H]1CO)OCO3`, the GI50 was 0.34 µM.

In the next assay the test system is SK-OV-3. The experiment in a line: Compound was evaluated for in vitro cytotoxicity against SKOV3 cancer cell line. The class given is functional. The note with it: Homo sapiens.
Compound `COC(=O)[C@@H]1[C@H](c2cc(OC)c(OC)c(OC)c2)c2cc3c(cc2[C@H](O)[C@H]1CO)OCO3` gave a concentration for 50% growth inhibition (GI50) of 0.03 µM.

For another assay, the system named is NCI-H522. In words: Compound was evaluated for in vitro cytotoxicity against H522 cancer cell line. The note with it: Homo sapiens.
Compound `COC(=O)[C@@H]1[C@H](c2cc(OC)c(OC)c(OC)c2)c2cc3c(cc2[C@H](O)[C@H]1CO)OCO3` registered a concentration for 50% growth inhibition (GI50) of 0.01 µM.

For the origin of these results see ChEMBL document CHEMBL1130825, “Novel D-ring analogues of podophyllotoxin as potent anti-cancer agents” (1998).
